Assay results taken from ChEMBL document CHEMBL1150496, “Synthesis and biological activity of C-5 modified derivatives of (+)-AJ76 and (+)-UH232: Increased dopamine D3 receptor preference and improved pharmacokinetic properties” (Bioorg Med Chem Lett, 1994).
Activity calls are given as the source filed them. No cut-off for these calls is given here.

Assays:
[1] = Half-life was estimated from the elimination phase of the oral [C] vs time curves in 4 rats; format: ADME, organism-based; settings: rat, in vivo
[2] = In vivo percent of absolute bioavailability obtained from blood plasma levels analyzed by means of GC/MS (dose 5 uM/kg i.v. and 40 uM/kg, p.o.); format: ADME, organism-based; settings: rat, po
D(2) dopamine receptor [3] = target: T1, D(2) dopamine receptor (Homo sapiens, UniProt P14416); experiment: Binding affinity was measured at cloned mammalian dopamine D2 receptor expressed in CHO-K1 cells (using [3H]U-86170); format: cell-based
D(3) dopamine receptor [4] = target: D(3) dopamine receptor (Homo sapiens, UniProt P35462); experiment: Binding affinity was measured at cloned mammalian dopamine D3 receptor expressed in CHO-K1 cells (using [3H]- spiperone); format: cell-based
D(4) dopamine receptor [5] = target: T2, D(4) dopamine receptor (Homo sapiens, UniProt P21917); experiment: Binding affinity was measured at cloned mammalian dopamine D4 receptor expressed in CHO-K1 cells (using [3H]- spiperone); format: cell-based
T2 sequence (P21917 whole entry): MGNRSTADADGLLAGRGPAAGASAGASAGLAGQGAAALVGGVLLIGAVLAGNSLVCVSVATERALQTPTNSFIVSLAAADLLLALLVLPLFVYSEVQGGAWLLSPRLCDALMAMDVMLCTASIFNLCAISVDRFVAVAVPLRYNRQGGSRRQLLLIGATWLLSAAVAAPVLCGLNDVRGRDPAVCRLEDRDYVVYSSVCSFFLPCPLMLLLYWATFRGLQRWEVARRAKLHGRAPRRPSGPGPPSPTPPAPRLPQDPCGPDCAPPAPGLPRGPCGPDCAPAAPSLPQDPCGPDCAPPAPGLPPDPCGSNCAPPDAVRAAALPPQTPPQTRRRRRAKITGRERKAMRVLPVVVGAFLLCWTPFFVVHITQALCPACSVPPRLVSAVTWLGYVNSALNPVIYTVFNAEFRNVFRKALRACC

Rattus norvegicus [6] = experiment: In vivo 5-HIAA level was measured in killed rat limbic brain regions at a dose of 200 umol/kg, sc; format: functional, Limbic system
Rattus norvegicus [7] = experiment: In vivo DOPAC level was measured in killed rat striatal brain regions at a dose of 200 umol/kg, sc; format: functional
Rattus norvegicus [8] = experiment: In vivo HVA level was measured in killed rat striatal brain regions at a dose of 200 umol/kg, sc; format: functional
Rattus norvegicus [9] = experiment: In vivo locomotor activity (LMA) in habituated rats at a dose of 200 umol/kg, sc, for 60 mins after 60 min habituation period; format: functional
[10] = target: 5-hydroxytryptamine receptor 1A (Homo sapiens, UniProt P08908); experiment: (§1) Binding affinity was measured at cloned mammalian 5-HT1A receptor expressed in CHO-K1 cells (using [3H]8-OH-DPAT ); format: cell-based
Rattus norvegicus [11] = species: Rattus norvegicus; experiment: In vitro stability relative to (+)-AJ76 in rat hepatocyte assay; In active; format: functional
Rattus norvegicus [12] = experiment: In vivo 5-HIAA level was measured in killed rat limbic brain regions at a dose of 12.5 umol/kg, sc; format: functional, Limbic system
Rattus norvegicus [13] = experiment: In vivo DOPAC level was measured in killed rat striatal brain regions at a dose of 12.5 umol/kg, sc; format: functional
Rattus norvegicus [14] = experiment: In vivo HVA level was measured in killed rat striatal brain regions at a dose of 12.5 umol/kg, sc; format: functional
Rattus norvegicus [15] = experiment: In vivo locomotor activity (LMA) in habituated rats at a dose of 12.5 umol/kg, sc, for 60 mins after 60 min habituation period; format: functional
Rattus norvegicus [16] = experiment: In vivo locomotor activity (LMA) in habituated rats at a dose of 50 umol/kg, sc, for 60 mins after 60 min habituation period; format: functional
Rattus norvegicus [17] = experiment: In vivo 5-HIAA level was measured in killed rat limbic brain regions at a dose of 100 umol/kg, sc; format: functional, Limbic system; set-up: unit not given here
Rattus norvegicus [18] = experiment: In vivo DOPAC level was measured in killed rat striatal brain regions at a dose of 100 umol/kg, sc; format: functional; set-up: unit not given here
Rattus norvegicus [19] = experiment: In vivo HVA level was measured in killed rat striatal brain regions at a dose of 100 umol/kg, sc; format: functional; set-up: unit not given here
Rattus norvegicus [20] = experiment: In vivo locomotor activity (LMA) in habituated rats at a dose of 100 umol/kg, sc, for 60 mins after 60 min habituation period; format: functional; set-up: unit not given here
Rattus norvegicus [21] = experiment: In vivo DOPAC level was measured in killed rat striatal brain regions at a dose of 50 umol/kg, sc; format: functional
Rattus norvegicus [22] = experiment: In vivo HVA level was measured in killed rat striatal brain regions at a dose of 50 umol/kg, sc; format: functional
Rattus norvegicus [23] = experiment: In vivo 5-HIAA level was measured in killed rat limbic brain regions at a dose of 50 umol/kg, sc; format: functional, Limbic system
D(2) dopamine receptor [24] = target: T1, D(2) dopamine receptor; experiment: Binding affinity was measured at cloned mammalian dopamine D2 receptor expressed in CHO-K1 cells (using [3H]U-86,170); NA means Inactive; format: cell-based
D(2) dopamine receptor [25] = target: T1, D(2) dopamine receptor; experiment: Percent inhibition against dopamine D2 receptor at a concentration of 1 umol/L
D(3) dopamine receptor [26] = target: D(3) dopamine receptor (Rattus norvegicus, UniProt P19020); experiment: Binding affinity was measured at cloned mammalian dopamine D3 receptor expressed in CHO-K1 cells (using [3H]- spiperone); NA means inactive; format: cell-based
[27] = target: D(3) dopamine receptor (Rattus norvegicus) (UniProt P19020); experiment: Percent inhibition against dopamine D3 receptor at a concentration of 1 umol/L
D(2) dopamine receptor [28] = target: D(2) dopamine receptor (Rattus norvegicus, UniProt P61169); experiment: Binding affinity was measured from rat striatal membrane using [3H]-spiperone at D2 receptors
D(4) dopamine receptor [29] = target: T2, D(4) dopamine receptor; experiment: Binding affinity was measured at cloned mammalian dopamine D4 receptor expressed in CHO-K1 cells (using [3H]- spiperone); NA means inactive; format: cell-based
[30] = target: T3, D(4) dopamine receptor (Homo sapiens) (UniProt P21917); experiment: Percent inhibition against dopamine D4 receptor at a concentration of 1 umol/L
T3 sequence (whole entry): T2 sequence (P21917 whole entry)

Rattus norvegicus [31] = experiment: In vivo 5-HIAA level was measured in killed rat limbic brain regions at a dose of 25 umol/kg, sc; format: functional, Limbic system
Rattus norvegicus [32] = experiment: In vivo DOPAC level was measured in killed rat striatal brain regions at a dose of 25 umol/kg, sc; format: functional
Rattus norvegicus [33] = experiment: In vivo HVA level was measured in killed rat striatal brain regions at a dose of 25 umol/kg, sc; format: functional
Rattus norvegicus [34] = experiment: In vivo locomotor activity (LMA) in habituated rats at a dose of 25 umol/kg, sc, for 60 mins after 60 min habituation period; format: functional
[35] = target: T4, 5-hydroxytryptamine receptor 1A (Homo sapiens, UniProt P08908); experiment: as §1; format: cell-based; remark: listed apart in the source
T4 sequence (P08908 whole entry): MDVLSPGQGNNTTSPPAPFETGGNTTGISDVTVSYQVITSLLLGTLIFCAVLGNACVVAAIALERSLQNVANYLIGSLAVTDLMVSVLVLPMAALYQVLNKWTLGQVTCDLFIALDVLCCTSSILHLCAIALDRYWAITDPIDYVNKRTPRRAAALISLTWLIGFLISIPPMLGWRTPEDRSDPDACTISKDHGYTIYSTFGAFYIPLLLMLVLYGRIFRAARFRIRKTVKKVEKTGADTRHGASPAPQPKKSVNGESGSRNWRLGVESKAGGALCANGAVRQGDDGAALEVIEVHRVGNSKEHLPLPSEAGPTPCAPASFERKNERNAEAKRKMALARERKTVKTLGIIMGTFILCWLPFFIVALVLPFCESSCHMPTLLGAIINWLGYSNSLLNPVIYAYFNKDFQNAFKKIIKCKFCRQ

[36] = target: T5, 5-hydroxytryptamine receptor 1A (Rattus norvegicus, UniProt P19327); experiment: Binding affinity was measured at 5-HT1A receptor in rat striatal membranes using [3H]8-OH-DPAT; format: cell membranes, Striatum, Membrane
T5 sequence (P19327 whole entry): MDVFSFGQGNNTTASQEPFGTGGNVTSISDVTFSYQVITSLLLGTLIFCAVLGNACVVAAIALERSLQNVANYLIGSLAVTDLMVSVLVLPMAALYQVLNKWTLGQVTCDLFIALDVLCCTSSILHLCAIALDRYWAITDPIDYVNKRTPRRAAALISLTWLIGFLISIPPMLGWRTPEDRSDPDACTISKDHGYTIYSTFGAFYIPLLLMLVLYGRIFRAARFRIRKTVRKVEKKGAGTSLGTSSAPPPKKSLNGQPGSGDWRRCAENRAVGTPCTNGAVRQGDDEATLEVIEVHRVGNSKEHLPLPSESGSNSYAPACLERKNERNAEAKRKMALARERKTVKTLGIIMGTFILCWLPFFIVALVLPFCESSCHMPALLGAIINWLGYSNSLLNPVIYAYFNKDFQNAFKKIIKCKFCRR

Rattus norvegicus [37] = experiment: In vivo 5-HIAA level was measured in killed rat limbic brain regions at a dose of 100 umol/kg, oral; format: functional, Limbic system
Rattus norvegicus [38] = experiment: In vivo DOPAC level was measured in killed rat striatal brain regions at a dose of 100 umol/kg, oral.; format: functional
Rattus norvegicus [39] = experiment: In vivo HVA level was measured in killed rat striatal brain regions at a dose of 100 umol/kg, oral.; format: functional
Rattus norvegicus [40] = experiment: In vivo locomotor activity (LMA) in habituated rats at a dose of 100 umol/kg, oral, for 60 mins after 60 min habituation period; format: functional

T1 sequence (P14416 whole entry): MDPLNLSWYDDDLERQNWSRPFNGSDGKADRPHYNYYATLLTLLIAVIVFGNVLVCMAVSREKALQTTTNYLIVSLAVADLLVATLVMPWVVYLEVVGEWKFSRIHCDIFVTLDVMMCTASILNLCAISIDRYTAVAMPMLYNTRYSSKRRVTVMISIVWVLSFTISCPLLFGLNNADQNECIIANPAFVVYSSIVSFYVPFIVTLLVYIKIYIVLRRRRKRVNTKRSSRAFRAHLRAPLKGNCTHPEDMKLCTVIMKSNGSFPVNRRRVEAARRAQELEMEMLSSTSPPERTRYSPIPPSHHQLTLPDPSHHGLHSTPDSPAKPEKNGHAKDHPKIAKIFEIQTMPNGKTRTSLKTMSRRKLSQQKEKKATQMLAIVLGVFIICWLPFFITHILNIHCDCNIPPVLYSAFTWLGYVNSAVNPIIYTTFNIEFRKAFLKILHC
Chain of D(3) dopamine receptor (Homo sapiens, UniProt P35462) (P35462 whole entry): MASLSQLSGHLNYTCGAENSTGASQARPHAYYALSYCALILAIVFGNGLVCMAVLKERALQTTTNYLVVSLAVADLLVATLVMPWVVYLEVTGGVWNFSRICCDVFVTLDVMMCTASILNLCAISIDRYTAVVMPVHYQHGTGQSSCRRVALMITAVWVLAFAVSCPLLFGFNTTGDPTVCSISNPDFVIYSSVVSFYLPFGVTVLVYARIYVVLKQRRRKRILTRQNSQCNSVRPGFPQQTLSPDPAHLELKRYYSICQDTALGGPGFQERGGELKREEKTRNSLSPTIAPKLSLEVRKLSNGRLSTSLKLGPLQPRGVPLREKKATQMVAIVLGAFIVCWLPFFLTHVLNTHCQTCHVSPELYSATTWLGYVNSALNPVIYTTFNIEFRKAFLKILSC
Chain of D(2) dopamine receptor (Rattus norvegicus, UniProt P61169) (P61169 whole entry): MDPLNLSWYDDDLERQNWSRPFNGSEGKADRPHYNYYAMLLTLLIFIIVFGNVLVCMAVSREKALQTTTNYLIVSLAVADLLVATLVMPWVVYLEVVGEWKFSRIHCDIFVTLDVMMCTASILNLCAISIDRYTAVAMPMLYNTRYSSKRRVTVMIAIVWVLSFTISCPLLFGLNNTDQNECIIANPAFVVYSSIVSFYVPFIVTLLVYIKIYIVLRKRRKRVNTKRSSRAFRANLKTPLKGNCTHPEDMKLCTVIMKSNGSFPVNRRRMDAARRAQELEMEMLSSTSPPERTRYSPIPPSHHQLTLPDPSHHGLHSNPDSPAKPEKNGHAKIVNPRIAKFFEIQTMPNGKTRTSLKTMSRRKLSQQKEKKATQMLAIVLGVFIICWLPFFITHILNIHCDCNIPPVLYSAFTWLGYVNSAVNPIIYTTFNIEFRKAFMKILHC
Chain of D(3) dopamine receptor (Rattus norvegicus) (P19020 whole entry): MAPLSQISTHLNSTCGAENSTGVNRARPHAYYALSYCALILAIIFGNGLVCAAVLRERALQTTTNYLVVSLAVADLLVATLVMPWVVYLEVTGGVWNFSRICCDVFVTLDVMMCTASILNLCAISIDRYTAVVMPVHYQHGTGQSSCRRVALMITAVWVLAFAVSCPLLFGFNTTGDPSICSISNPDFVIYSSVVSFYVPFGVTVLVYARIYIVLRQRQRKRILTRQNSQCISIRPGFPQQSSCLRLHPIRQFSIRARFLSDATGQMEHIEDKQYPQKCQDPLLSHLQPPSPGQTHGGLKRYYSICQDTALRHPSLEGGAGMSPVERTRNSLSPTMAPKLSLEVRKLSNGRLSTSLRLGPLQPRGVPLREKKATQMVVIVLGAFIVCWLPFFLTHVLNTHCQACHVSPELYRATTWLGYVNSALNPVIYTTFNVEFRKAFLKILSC
Chain of D(3) dopamine receptor (Rattus norvegicus, UniProt P19020) (P19020 whole entry): as above

SMILES | half-life [1] | bioavailability [2] | Ki (D(2) dopamine receptor [3]) | Ki (D(3) dopamine receptor [4]) | Ki (D(4) dopamine receptor [5]) | Activity (Rattus norvegicus [6]) | Activity (Rattus norvegicus [7]) | Activity (Rattus norvegicus [8]) | Activity (Rattus norvegicus [9]) | Ki [10] | Activity (Rattus norvegicus [17]) | Activity (Rattus norvegicus [18]) | Activity (Rattus norvegicus [19]) | Activity (Rattus norvegicus [20]) | other results
CCCN(CCC)[C@@H]1CCc2c(OS(=O)(=O)C(F)(F)F)cccc2[C@@H]1C | 360 min | 9.4% | 546 nM | 40 nM | 121 nM | 94 | <146 | <163 | <250 | > 3.45 µM |  |  |  |  | 
CCCN(CCC)[C@@H]1CCc2c(OC)cccc2[C@@H]1C | 150 min | 3.7% | 15 nM | 4.2 nM |  |  |  |  |  |  |  |  |  |  | Activity (Rattus norvegicus [11]): inactive; Activity (Rattus norvegicus [12]): 119; Activity (Rattus norvegicus [13]): <176; Activity (Rattus norvegicus [14]): <214; Activity (Rattus norvegicus [15]): <191; Activity (Rattus norvegicus [16]): <200
CCCN(CCC)[C@@H]1CCc2c(C(N)=O)cccc2[C@@H]1C |  |  |  |  |  |  |  |  |  |  | 113 | 135 | 128 | 169 | 
CCCN[C@@H]1CCc2c(C(=O)OC)cccc2[C@@H]1C |  |  | 2330 nM | 253 nM | 1590 nM | <75 | 117 | 120 | 102 | 0.287 µM |  |  |  |  | 
CCCN[C@@H]1CCc2c(OS(=O)(=O)C(F)(F)F)cccc2[C@@H]1C | 360 min | 62.2% | 2560 nM | 171 nM | 621 nM | 92 | <130 | <135 | 167 | 3.07 µM |  |  |  |  | 
CCCN[C@@H]1CCc2c(OC)cccc2[C@@H]1C | 60 min | 1.6% | 145 nM |  |  |  |  |  |  |  |  |  |  |  | Activity (Rattus norvegicus [12]): 121; Activity (Rattus norvegicus [13]): <220; Activity (Rattus norvegicus [21]): <346; Activity (Rattus norvegicus [14]): <251; Activity (Rattus norvegicus [22]): <402; Activity (Rattus norvegicus [15]): <272; Activity (Rattus norvegicus [16]): <354; Activity (Rattus norvegicus [23]): 127
CCCN[C@@H]1CCc2c(C#N)cccc2[C@@H]1C |  |  |  |  |  |  |  |  |  |  | 100 | <224 | <248 | 149 | Ki (D(2) dopamine receptor [24]): Not Active; inhibition (D(2) dopamine receptor [25]): < 50%; Ki (D(3) dopamine receptor [26]): Not Active; inhibition [27]: < 50%; Ki (D(2) dopamine receptor [28]): 16.7 µM; Ki (D(4) dopamine receptor [29]): Not Active; inhibition [30]: < 50%; Activity (Rattus norvegicus [31]): 102; Activity (Rattus norvegicus [32]): 121; Activity (Rattus norvegicus [33]): 136; Activity (Rattus norvegicus [34]): 165; Ki [35]: > 1790 nM
CCCN[C@@H]1CCc2c(C(N)=O)cccc2[C@@H]1C |  |  |  |  |  |  |  |  |  |  | 97 | 109 | 105 | 215 | Ki [36]: 6.72 µM
CCCN(CCC)[C@@H]1CCc2c(C#N)cccc2[C@@H]1C |  |  |  |  |  |  |  |  |  |  | 95 | <213 | <241 | <334 | Ki (D(2) dopamine receptor [28]): 6.67 µM; Activity (Rattus norvegicus [37]): 82; Activity (Rattus norvegicus [31]): 93; Activity (Rattus norvegicus [38]): <128; Activity (Rattus norvegicus [32]): <127; Activity (Rattus norvegicus [39]): <166; Activity (Rattus norvegicus [33]): <134; Activity (Rattus norvegicus [40]): <287; Activity (Rattus norvegicus [34]): 125; Ki [36]: 5.04 µM
